The source of these data is publication PMC10689823, “Discovery of a Drug-like, Natural Product-Inspired DCAF11 Ligand Chemotype” (Nature Communications, 2023).

Several values for one entry are separate records, joined by “and”; a condition that tells them apart may be missing. Identical values can stand only once.

Holding throughout (assay type): binding
The target in assay [1] is T1, DCAF11 (Homo sapiens, UniProt Q8TEB1). The assay is described as follows: Affinity-based enrichment (biotin-streptavidin pulldown) in Hep G2 cells overexpressing HA-DCAF11. Details: host or cells: Hep G2. To be noted: Hep G2 cells overexpressing HA-DCAF11; 10 μM probe, 2 h. The procedure: Hep G2 cells (1 × 10^6 cells/well) were seeded in 6-well plates and incubated for 24 h. On the next day, the cells were transfected with 1 µg pCMV3-N-HA-DCAF11 plasmid (Sino Biological, HG16257-NY) or 1 µg empty vector (pcDNA3.1(+), Thermo Fisher, V79020) and 2.5 µL FuGENE® HD transfection reagent (Promega, E2311) per well. The cells were incubated for 48 h prior to treatment with 100 μM compound 2 for 1 h. […] The cells were washed with ice-cold PBS, then lysed in lysis buffer (150 mM sodium chloride, 1% NP-40, 50 mM TRIS-HCl, pH 8.0 with complete protease inhibitor cocktail (Roche, 11836170001)) for 30 min on ice. After centrifugation at 16,000 x g, the supernatant was transferred into a new tube and the protein concentration was determined using the DC protein assay (BIO-RAD, 5000116).
The supernatant was discarded and 1 mg of lysate in 500 µL lysis buffer was added to the beads and incubated for 1 h at room temperature with overhead rotation. The beads were washed twice with 500 µL washing buffer (50 mM PIPES (pH 7.4), 50 mM NaCl, 75 mM MgCl2, 5 mM EGTA, 0.1% NP-40, 0.1% Triton X-100, 0.1% Tween20) and twice with PBS for 10 min each at room temperature with overhead rotation. Enriched proteins were eluted by boiling of the beads at 95 °C for 5 min in 20 µL of a supersaturated (25 mM) biotin solution and visualized by Western Blotting as described above.

For assay [2], the target named is T2, LC3B (Homo sapiens, UniProt Q9GZQ8). Briefly: Thermal shift assay with LC3B. The conditions noted are these: 15 µM LC3B; 60 µM compound; Glo-Melt dye. The procedure:
For thermal shift analysis, 15 µM of human LC3B was dispensed into 384-well plates (Hard-Shell 384-well 480 PCR plates, BioRAD #HSR4805) in buffer (50 mM Tris/HCl pH 7.4, 100 mM NaCl, 1 mM GSH and 0.02% CHAPS) with a Certus Flex liquid dispenser (Gyger). 60 µM compounds in DMSO (n4 or DMSO (0.6%) as control were added with an Echo 520 acoustic liquid handler (Labcyte). Glo-Melt dye was added (final concentration: 1/100), plates sealed with Lightcycler 480 Sealing Foils (Roche, #04 729 757 001) and mixed by short centrifugation (1 min, 60 g and room temeprature). A Lightcycler 480 II (Roche) was used for thermal shift curves with a temperature gradient from 20 to 95 °C according to the manufacturer´s protocol. Protein melting curves were analyzed, and the difference in meting temperature (ΔTm) was calculated with LightCycler Thermal Shift Analysis software (ROCHE) and visualized by Graphpad Prism (Version 9.5.1).

The target of assay [3] is T1, DCAF11. The assay is described as follows: In-gel fluorescence labelling of purified DCAF11. The conditions noted are these: 40 min; in-gel fluorescence. The procedure:
Purified DCAF11 protein (1 μg, Origene, TP760719) was diluted in PBS buffer that is mixed with compound 2 or BODIPY derivative 18 at the indicated concentration at room temperature. Samples were diluted with 5 × SDS sample loading buffer and heated at 95 °C for 5 min. Proteins were separated using SDS-PAGE and were visualized using the ChemiDoc MP Imaging System (BIO-RAD) at 488 nm and the results were analyzed by Image Lab (BIORAD).

Assay [4] concerns the target T2, LC3B. The assay is described as follows: Fluorescence polarization with LC3B protein. Details: His (N); made in house; host or cells: E. coli BL21DE3 RIL. To be noted: for Fluorescence Polarization (mP): probe 18 at 100 µM. The procedure: The LC3B open reading frame was cloned into pOPINE-NHis by the Dortmund protein Facility (DPF). pOPINE-NHis-LC3B was transformed into BL21DE3 RIL K+. Cells were cultured in TB medium supplemented with ampicillin and chloramphenicol (Amp/Cam), 1% glucose and 2 mM MgSO4. A 10 L culture was incubated in TB/Amp with 0.01 % lactose monohydrate, 2 mM MgSO4 for 4 h at 37 °C followed by overnight incubation at 20 °C. Cells were lysed using sonication in a buffer containing 50 mM HEPES (pH 7.5), 300 mM NaCl, 10 mM imidazole, 1 mM 2-mercaptoethanol, 1 mM PMSF and DNase. Upon centrifugation, the supernatant was applied onto Ni NTA column. The column was washed using 50 mM HEPES (pH 7.5), 300 mM NaCl, 30 mM imidazole, 1 mM 2-mercaptoethanol. The protein was eluted in 50 mM HEPES pH 7.5, 300 mM NaCl, 300 mM imidazole, 1 mM 2-mercaptoethanol prior to size exclusion chromatography using 26/60 G75 column and 25 mM HEPES pH 7.5, 150 mM NaCl and1 mM DTE.
The assay was performed in black, 384 well plates with a total volume of 20 µl per well using a buffer solution comprising 50 mM Tris, 300 mM NaCl and 1 mM 2-mercaptoethanol, pH 7.5. The BODIPY labelled compound 18 was tested at a final concentration of 100 µM, and the LC3B protein was titrated in two-fold dilution series. The plates were incubated at 20°C for 30 min, and fluorescence polarization was measured using a Tecan Spark plate reader at ex/em 502 / 511 nm.
(In fluorescence polarisation assays a small probe gives low polarisation when free and higher when bound to something large.)

T1 sequence (Q8TEB1 whole entry): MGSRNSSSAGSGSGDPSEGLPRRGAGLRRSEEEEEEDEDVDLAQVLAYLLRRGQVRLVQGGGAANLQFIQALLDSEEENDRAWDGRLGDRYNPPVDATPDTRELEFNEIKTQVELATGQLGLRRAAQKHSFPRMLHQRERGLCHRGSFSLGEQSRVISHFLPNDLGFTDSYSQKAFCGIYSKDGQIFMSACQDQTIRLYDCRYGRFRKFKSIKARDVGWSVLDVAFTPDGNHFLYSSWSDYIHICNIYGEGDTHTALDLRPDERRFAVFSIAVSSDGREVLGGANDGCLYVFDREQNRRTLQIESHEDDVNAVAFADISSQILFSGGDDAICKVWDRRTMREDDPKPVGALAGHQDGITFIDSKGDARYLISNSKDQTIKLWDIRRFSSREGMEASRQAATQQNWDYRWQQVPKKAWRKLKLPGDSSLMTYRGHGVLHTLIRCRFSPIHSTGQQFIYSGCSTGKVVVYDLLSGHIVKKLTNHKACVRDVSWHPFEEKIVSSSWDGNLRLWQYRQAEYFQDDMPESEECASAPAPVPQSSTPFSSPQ

`O=C(CCCCC1SC[C@@H]2NC(=O)N[C@H]12)NCCOc1c(Br)cc(/C=C2\C(=O)Nc3ccc(Br)cc32)cc1Br` (stereo partly shown) [Compound 14]: at DCAF11 [1], the “enrichment of DCAF11 by pulldown” value is given as “enriched DCAF11 protein”.

Consider DC-LC3in-D5 [reference compound], for which the “change of melting temperature of LC3B (ΔTm)” value at LC3B [2] stood at 13 °C.

Consider `Cc1cc(C)n2c1C=C1C=CC(CCC(=O)NCCOCCOCCOCCOc3c(Br)cc(C=C4C(=O)Nc5ccc(Br)cc54)cc3Br)=[N+]1[B-]2(F)F` [Compound 18], for which, on DCAF11 [3], the “binding (fluorescence labelling) to purified DCAF11” value is listed as “binds to purified DCAF11 in a concentration-dependent manner”. At LC3B [4] (18 at 100 µM, LC3B titrated), the “binding to LC3B in fluorescence polarization” value was “failed to bind”. In addition, the “Fluorescence Polarization (mP)” value on LC3B [4] (LC3B protein concentration 0.00610352 µM) is 132 mP and 130 mP and 100 mP and 97 mP; on LC3B [4] (LC3B protein concentration 0.012207 µM), 127 mP and 128 mP and 102 mP and 96 mP; at LC3B [4] (LC3B protein concentration 0.0244141 µM), 129 mP and 121 mP and 108 mP and 110 mP; at LC3B [4] (LC3B protein concentration 0.0488281 µM), 132 mP and 133 mP and 107 mP and 105 mP; at LC3B [4] (LC3B protein concentration 0.0976562 µM), 127 mP and 130 mP and 115 mP and 111 mP; at LC3B [4] (LC3B protein concentration 0.195312 µM), 131 mP and 136 mP and 106 mP and 103 mP. In addition, the “Fluorescence Polarization (mP)” value at LC3B [4] (LC3B protein concentration 0.390625 µM) is 133 mP and 127 mP and 116 mP and 109 mP; at LC3B [4] (LC3B protein concentration 0.78125 µM) it was 135 mP and 112 mP and 108 mP; at LC3B [4] (LC3B protein concentration 1.5625 µM) it was 138 mP and 134 mP and 112 mP and 113 mP; on LC3B [4] (LC3B protein concentration 3.125 µM) it was 132 mP and 138 mP and 112 mP and 108 mP; at LC3B [4] (LC3B protein concentration 6.25 µM) it was 132 mP and 131 mP and 113 mP and 111 mP; at LC3B [4] (LC3B protein concentration 12.5 µM), 108 mP and 101 mP and 138 mP and 135 mP. Also, the “Fluorescence Polarization (mP)” value is 110 mP and 132 mP and 130 mP at LC3B [4] (LC3B protein concentration 25 µM); 107 mP and 101 mP and 132 mP and 133 mP on LC3B [4] (LC3B protein concentration 50 µM); 102 mP and 138 mP and 134 mP on LC3B [4] (LC3B protein concentration 100 µM).
